pIC50: −log10 of the molar value.

The test concerns the target T1, androgen receptor (AR) (Homo sapiens, UniProt P10275, T878A).
T1 construct: endogenous in cells; host or cells: LNCaP
T1 sequence (P10275 1-920 T878A): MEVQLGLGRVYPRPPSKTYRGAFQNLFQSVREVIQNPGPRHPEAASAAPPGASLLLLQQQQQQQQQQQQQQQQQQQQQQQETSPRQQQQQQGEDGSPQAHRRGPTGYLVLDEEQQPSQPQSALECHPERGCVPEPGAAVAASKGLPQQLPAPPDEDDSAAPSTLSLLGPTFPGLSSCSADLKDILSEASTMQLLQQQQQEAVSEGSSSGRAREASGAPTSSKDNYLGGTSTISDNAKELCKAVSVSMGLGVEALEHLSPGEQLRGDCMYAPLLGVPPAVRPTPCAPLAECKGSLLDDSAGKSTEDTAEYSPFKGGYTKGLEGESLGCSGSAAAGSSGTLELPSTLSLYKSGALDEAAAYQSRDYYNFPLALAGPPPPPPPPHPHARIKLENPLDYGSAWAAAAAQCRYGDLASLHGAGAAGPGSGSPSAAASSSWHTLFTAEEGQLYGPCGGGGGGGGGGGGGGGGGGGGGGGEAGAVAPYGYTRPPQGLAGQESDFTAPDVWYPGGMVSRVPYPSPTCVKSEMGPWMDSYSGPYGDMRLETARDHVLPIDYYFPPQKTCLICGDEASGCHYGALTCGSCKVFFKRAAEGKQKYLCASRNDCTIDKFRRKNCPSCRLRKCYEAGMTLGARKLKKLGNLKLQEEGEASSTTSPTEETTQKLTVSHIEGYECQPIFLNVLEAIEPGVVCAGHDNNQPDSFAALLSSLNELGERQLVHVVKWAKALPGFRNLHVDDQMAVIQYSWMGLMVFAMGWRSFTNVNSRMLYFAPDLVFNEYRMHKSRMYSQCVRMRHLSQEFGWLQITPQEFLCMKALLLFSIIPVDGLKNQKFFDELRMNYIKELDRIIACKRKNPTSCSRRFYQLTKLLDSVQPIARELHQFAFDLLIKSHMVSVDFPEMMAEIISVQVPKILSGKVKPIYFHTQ
In words: Androgen-induced PSA-luciferase assay, Luciferase Assay A (LNCaP transiently transfected with PSA (6.1 kb)-luciferase reporter). Format: cell-based. As to conditions: LNCaP cells, 1 h pretreatment, R1881 (1 nM) 24 h, read-out: PSA-Luc IC50 Range. The method, then:
The PSA (6.1 kb)-luciferase reporter contains functional AREs (androgen response elements) to which AR binds in response to androgen to induce luciferase activity. LNCaP cells were transiently transfected with the PSA (6.1 kb)-luciferase reporter for 24 h, and then pretreated with vehicle (DMSO) or indicated concentration of representative compounds for one hour prior to the addition of synthetic androgen, R1881 (1 nM). After 24 h of incubation with R1881, the cells were harvested, and relative luciferase activities were determined (FIG. 1). To determine the IC50, treatments were normalized to vehicle control activity induced by R1881 (Table 2).
Luciferase Assay A: Cells were lysed using Passive Lysis Buffer (Promega) and then collected into V-bottom 96-well tissue culture plates. Lysates were centrifuged at 4° C. for 5 minutes at 3000 rpm. To measure luminescence of LNCaP cell lysates the Firefly Luciferase Assay System (Promega) was employed, according to manufacturer's protocol. Relative luminescence units (RLU) in cell lysates were detected for 10 seconds using Promega GloMax-Multi Detection Luminometer (Promega). Values were normalized to protein content. GraphPad Prism graphing software was used to calculate IC50 values. Luciferase Assay A was run for all compounds in Table 2 unless otherwise noted below.
Statistical analyses were performed using GraphPad Prism (Version 6.01 for Windows; La Jolla, CA, USA). Comparisons between treatment and control groups were compared using Two-Way ANOVA with post-hoc Dunnett's and Tukey's tests. Differences were considered statistically significant at P values less than 0.05.
Regarding `CC(C)(c1ccc(OCc2ccnc(NS(C)(=O)=O)n2)cc1)c1cc(Cl)c(OCc2ccccc2)c(C#N)c1` [Compound A182], the negative-log IC50 (pIC50) was 5.70 to 6.30.

As for `CC(C)(c1ccc(-n2cc(N3CC(NS(C)(=O)=O)C3)cn2)cc1)c1cc(Cl)c(OCCCl)c(C#N)c1` [Compound A45], the negative-log IC50 (pIC50) was 5.70 to 6.30.

Turning to `CS(=O)(=O)NCc1ccc(-c2ccc(Oc3cc(Cl)c(OCCCl)c(C#N)c3)cc2)cn1` [Compound A21], the negative logarithm of the IC50 (pIC50) was 5.70 to 6.30.

As for `CC(C)(c1ccc(N2CCN(CCNS(C)(=O)=O)CC2)cc1)c1cc(Cl)c(OCCCl)c(C#N)c1` [Compound A13], the negative-log IC50 (pIC50) is less than 5.70.

In the case of `CC(C)(c1ccc(N2CCOC3(CCN(S(C)(=O)=O)CC3)C2)cc1)c1cc(Cl)c(OCCCl)c(C#N)c1` [Compound A32], the pIC50 was greater than 6.30.

As for `CS(=O)(=O)NC1CN(CCc2ccc(Oc3cc(Cl)c(OCCCl)c(C#N)c3)cc2)C1` [Compound A7], the pIC50 is less than 5.70.

On to `CC(C)(c1ccc(-c2cnc(N3CC(NS(C)(=O)=O)C3)c(F)c2)cc1)c1cc(Cl)c(OCCCl)c(C#N)c1` [Compound A50], for which the negative-log IC50 (pIC50) was greater than 6.30.

Turning to `CC(C)(c1ccc(OCC23CC(NS(C)(=O)=O)(C2)C3)cc1)c1cc(Cl)c(OC2CC2)c(C#N)c1` [Compound A143], the negative logarithm of the IC50 (pIC50) was 5.70 to 6.30.

For `CS(=O)(=O)NC1CN(c2ncc(-c3ccc(Oc4cc(Cl)c(OCCCl)c(C#N)c4)cc3)cn2)C1` [Compound A70], the negative-log IC50 (pIC50) was less than 5.70.

Regarding `CCCOc1c(Cl)cc(C(C)(C)c2ccc(OCc3ccnc(NS(C)(=O)=O)n3)cc2)cc1C#N` [Compound A178], the negative-log IC50 (pIC50) was greater than 6.30.

For the compound `CC(C)(c1ccc(-c2ccc(N3CCCC(NS(C)(=O)=O)C3)nc2)cc1)c1cc(Cl)c(OCCCl)c(C#N)c1` (stereo not shown) [Compound A59], the pIC50 is 5.70 to 6.30.

For `CC(C)(c1ccc(OCc2ccnc(NS(C)(=O)=O)n2)cc1)c1cc(Cl)c(OC2CCC2)c(C#N)c1` [Compound A52], the pIC50 was 5.70 to 6.30.

Take `CC(C)(c1ccc(CCN2CCC(NS(C)(=O)=O)CC2)cc1)c1cc(Cl)c(OCCCl)c(C#N)c1` [Compound A29]: the pIC50 is less than 5.70.

With `CC(C)(c1ccc(OC[C@]2(F)C[C@H](NS(C)(=O)=O)C2)cc1)c1cc(Cl)c(OCCCl)c(C#N)c1` [Compound A26], the pIC50 was less than 5.70.

With `CC(C)(c1ccc(OCC2CC3(C2)CN(S(C)(=O)=O)C3)cc1)c1cc(Cl)c(OCCCl)c(C#N)c1` [Compound A71], the negative-log IC50 (pIC50) is 5.70 to 6.30.

Turning to `CS(=O)(=O)N[C@H]1C[C@H](n2cc(-c3ccc(Oc4cc(Cl)c(OCCCl)c(C#N)c4)cc3)cn2)C1` [Compound A79], the negative-log IC50 (pIC50) was less than 5.70.

Consider `CC(C)(c1ccc(OCc2ccnc(NS(C)(=O)=O)n2)cc1)c1cc(Cl)c(CCN2CC(F)(F)C2)c(C#N)c1` [Compound A168], for which the pIC50 is less than 5.70.

With `COC1CN(c2c(Cl)cc(C(C)(C)c3ccc(OCc4ccnc(NS(C)(=O)=O)n4)cc3)cc2C#N)C1` [Compound A167], the pIC50 is less than 5.70.

For the compound `CC(C)(c1ccc(-c2cn([C@H]3C[C@H](NS(C)(=O)=O)C3)nn2)cc1)c1cc(Cl)c(OCCCl)c(C#N)c1` [Compound A77], the negative logarithm of the IC50 (pIC50) was less than 5.70.

Take `CC1(O)CN(Cc2c(Cl)cc(C(C)(C)c3ccc(OCc4ccnc(NS(C)(=O)=O)n4)cc3)cc2Cl)C1` [Compound A161]: the pIC50 was less than 5.70.

Take `CC(C)(c1ccc(OCc2ccnc(NS(=O)(=O)c3ccccn3)n2)cc1)c1cc(Cl)c(OCCCl)c(C#N)c1` [Compound A110]: the pIC50 is 5.70 to 6.30.

Turning to `CC(C)(c1ccc(OC2CC3(CC(NS(C)(=O)=O)C3)C2)cc1)c1cc(Cl)c(OCCCl)c(C#N)c1` (stereo not shown) [Compound A150], the negative-log IC50 (pIC50) was 5.70 to 6.30.

With `CC(C)(c1ccc(OCc2ccnc(NS(C)(=O)=O)n2)cc1)c1cc(Cl)c(OCC2CCC2)c(C#N)c1` [Compound A146], the negative-log IC50 (pIC50) was 5.70 to 6.30.

`CC(C)(c1cc(Cl)c(OCCCl)c(C#N)c1)c1ccc(OCc2ccnc(NS(C)(=O)=O)n2)c(CN2CCNCC2)c1` [Compound A113]: the negative-log IC50 (pIC50) was less than 5.70.

As to `CC(C)(c1ccc(OCc2ccnc(-n3cnc(S(N)(=O)=O)n3)n2)cc1)c1cc(Cl)c(OCCCl)c(C#N)c1` [Compound A108], the pIC50 is 5.70 to 6.30.

`CC(C)(c1ccc(OCc2ccnc(NS(C)(=O)=O)n2)cc1)c1cc(Cl)c(CN2CCOCC2)c(Cl)c1` [Compound A159]: the pIC50 is less than 5.70.

For `CC(C)(c1ccc(OC[C@]2(C)C[C@@H](NS(C)(=O)=O)C2)cc1)c1cc(Cl)c(OCCCl)c(C#N)c1` [Compound A25], the pIC50 was less than 5.70.

On to `CS(=O)(=O)N1CC2(CC(Oc3ccc(Oc4cc(Cl)c(OCCCl)c(C#N)c4)cc3)C2)C1` [Compound A137], for which the negative-log IC50 (pIC50) is 5.70 to 6.30.

For the compound `CC(C)(c1ccc(N2CCOC(CNS(C)(=O)=O)C2)cc1)c1cc(Cl)c(OCCCl)c(C#N)c1` (stereo not shown) [Compound A14], the negative-log IC50 (pIC50) is 5.70 to 6.30.

In the case of `CC(C)(c1ccc(OCc2ccnc(NS(C)(=O)=O)n2)cc1)c1cc(Cl)c(N2CC3CC(C2)O3)c(C#N)c1` [Compound A126], the negative-log IC50 (pIC50) was less than 5.70.

Take `CN(c1ccc(OCc2ccnc(NS(C)(=O)=O)n2)cc1)c1cc(C#N)c(OCCCl)cn1` [Compound A171]: the pIC50 is less than 5.70.

Consider `CS(=O)(=O)Nc1cnc2cc(-c3ccc(Nc4cc(Cl)c(OCCCl)c(C#N)c4)cc3)ccc2n1` [Compound A27], for which the negative logarithm of the IC50 (pIC50) was less than 5.70.

On to `CS(=O)(=O)Nc1nccc(COc2ccc(Oc3cc(Cl)c(OCCCl)c(C#N)c3)cc2)n1` [Compound A122], for which the negative logarithm of the IC50 (pIC50) is less than 5.70.

In the case of `CC(C)(c1cc(Cl)c(OCCCl)c(C#N)c1)c1ccc(OCc2ccnc(NS(C)(=O)=O)n2)c(CN)c1` [Compound A111], the pIC50 is less than 5.70.

Regarding `CC(C)(c1ccc(OCc2cnc(NS(C)(=O)=O)nc2N)cc1)c1cc(Cl)c(OCCCl)c(C#N)c1` [Compound A118, N-(4-amino-5-((4-(2-(3-chloro-4-(2-chloroethoxy)-5-cyanophenyl)propan-2-yl)phenoxy)methyl)pyrimidin-2-yl)methanesulfonamide], the pIC50 was greater than 6.30.

As to `CC(C)(c1ccc(-c2ccnc(N3CC(NS(C)(=O)=O)C3)n2)cc1)c1cc(Cl)c(OCCCl)c(C#N)c1` [Compound A40], the negative-log IC50 (pIC50) was less than 5.70.

For `CC(C)(c1ccc(-c2ccc(N3CC(CNS(C)(=O)=O)C3)nc2)cc1)c1cc(Cl)c(OCCCl)c(C#N)c1` [Compound A55], the pIC50 was greater than 6.30.

For `Cn1ccc(S(=O)(=O)Nc2nccc(COc3ccc(C(C)(C)c4cc(Cl)c(OCCCl)c(C#N)c4)cc3)n2)n1` [Compound A105], the negative-log IC50 (pIC50) is 5.70 to 6.30.

Take `CC(C)(c1ccc(OCc2ccnc(NS(C)(=O)=O)n2)cc1)c1cc(Cl)c(OCCCOC(=O)Nc2ccccc2)c(C#N)c1` [Compound A139]: the pIC50 is 5.70 to 6.30.

Turning to `CC(C)(c1ccc(CN2CCC(NS(C)(=O)=O)CC2)cc1)c1cc(Cl)c(OCCCl)c(C#N)c1` [Compound A8], the negative-log IC50 (pIC50) is less than 5.70.

On to `CC(C)(c1ccc(-c2cnc(N3CCC34CN(S(C)(=O)=O)C4)nc2)cc1)c1cc(Cl)c(OCCCl)c(C#N)c1` [Compound A138], for which the negative-log IC50 (pIC50) is 5.70 to 6.30.

Consider `CC(C)(c1ccc(OCc2ccnc(NS(C)(=O)=O)n2)cc1)c1cc(Cl)c(CCO)c(C#N)c1` [Compound A129], for which the pIC50 is less than 5.70.

Turning to `CC(C)(c1ccc(OCc2ccnc(-n3cc(S(N)(=O)=O)cn3)n2)cc1)c1cc(Cl)c(OCCCl)c(C#N)c1` [Compound A104], the negative logarithm of the IC50 (pIC50) is less than 5.70.

Turning to `CC(C)(c1ccc(-c2ccc3c(c2)COC32CN(S(C)(=O)=O)C2)cc1)c1cc(Cl)c(OCCCl)c(C#N)c1` [Compound A10], the negative logarithm of the IC50 (pIC50) was 5.70 to 6.30.

`CC(C)(c1ccc(-c2ccc(NC3CN(S(C)(=O)=O)C3)nc2)cc1)c1cc(Cl)c(OCCCl)c(C#N)c1` [Compound A53]: the negative-log IC50 (pIC50) was greater than 6.30.

For `CC(C)(c1ccc(Oc2ccnc(CNS(C)(=O)=O)n2)cc1)c1cc(Cl)c(OCCCl)c(C#N)c1` [Compound A85], the negative-log IC50 (pIC50) is 5.70 to 6.30.

As usually defined, the pIC50 is the negative decadic logarithm of the IC50, by convention in mol/L.

Source of the values: patent publication US20230373934A1, “ANDROGEN RECEPTOR MODULATORS AND METHODS FOR THEIR USE” (ESSA Pharma, Inc., priority 2022, published 2023).
